Assays:
HSV-2 = assay: Viral titer from Vero cells pre-treated with oligonucleotide, HSV-2; type: cell-based, African Green monkey (Vero cells); settings: cells infected with HSV-2
Experimental: Vero cells, a cell line derived from African Green monkey kidney, were pre-treated with varying concentrations of ISS or non-ISS oligonucleotides for varying times prior to the addition of HSV-1 or HSV-2. Oligonucleotides were used at 1 μg/ml or 10 μg/ml and the cells were incubated with the oligonucleotides for 30 seconds, 10 minutes or 24 hours. Viral titers were calculated as a percent of control titer generated by cells not treated with the oligonucleotides. The data are expressed as percent of control titer.

RSV A2 = assay: RSV lung titer in cotton rats after non-local (IP or SC) administration; type: in vivo, cotton rat (Sigmoden hispidis); settings: for RSV titer (log10/g lung) Mean / RSV titer (log10/g lung) in cotton rat no. 1 / RSV titer (log10/g lung) in cotton rat no. 2 / RSV titer (log10/g lung) in cotton rat no. 3 / RSV titer (log10/g lung) in cotton rat no. 4 / RSV titer (log10/g lung) in CR no. 1 / RSV titer (log10/g lung) in CR no. 2 / RSV titer (log10/g lung) in CR no. 3 / RSV titer (log10/g lung) in CR no. 4: Non-ISS = SEQ ID NO:10
Experimental: Cotton rats, 50-100 g and 4-12 weeks old (Sigmoden hispidis) of either sex were used in these studies. All of the animals were descendants of two pair of cotton rats obtained in 1984 from the Small Animal Section of the Veterinary Research Branch, Division of Research Services, National Institutes of Health.
RSV strain A2 was purchased from the ATCC (ATCC VR26). Working stocks of this virus were prepared as described in detail by Wyde et al. (1995) Pediatr. Res. 38:543-550. ISS sequence tested for RSV experiments was 5′-[…]-3′ (SEQ ID NO:1) (phosphorothioate). Control, non-ISS sequences used were 5′-[…]-3′ (SEQ ID NO:9) (phosphorothioate) and 5′-[…]-3′ (SEQ ID NO:10) (phosphorothioate), as well as PBS.
RSV levels in virus pools and lung lavage fluids (L.F.) were determined using sterile 96-well, flat bottom tissue culture plates (Falcon 3072), serial 3-fold dilutions and 2% FCS-MEM as described in detail previously (Wyde et al., 1995). […] The amount of virus in virus pools was expressed as a median tissue culture infectious doses (TCID50/ml, log10). Titers of virus in L.F. were expressed as TCID50/g lung tissue (log10). The minimum detectable virus concentration in these assays was 1.3 log10 TCID50/ml (virus pools) or 1.6 log10 TCID50/g lung.
Twenty cotton rats were divided into 5 groups of 4 animals. Administered to these animals, either intraperitoneally (IP) or subcutaneously (SC), was PBS, immunostimulatory sequence (ISS) 5′-[…]-3′ (SEQ ID NO:1) or non-ISS sequence 5′-[…]-3′ (SEQ ID NO:10), each sequence at 150 μg/injection. On Day 0 each of these animals was […] IN with 100 TCID50 of RSV A2. Four days later each cotton rat was sacrificed. The lungs of each animal were removed, lavaged and assessed for RSV.

HSV-2 strain 186 = assay: Vaginal HSV-2 lethal challenge in mice; type: in vivo, Swiss Webster mice
Description: Outbred Swiss Webster mice, vaginally infected with HSV-2 strain 186, were used as a model of HSV infection. In these animals, the first indication of viral infection is hair loss and erythema (HLE) near the vagina occurring, on average, 5 days after inoculation. The next stage of infection is indicated by chronic wetness (CW) due to loss of bladder control, on average, 6 days after inoculation. A portion (about 50% of infected mice) of the animals develop hind limb paralysis (HLP) at approximately the same time point. Death, which is often preceded by evidence of CNS disease, occurs an average of 7-9 days after viral inoculation.
Mice were prepared for infection by an initial two-dose treatment with depopriven to synchronize cycles and to thin the vaginal epithelium. Vaginal mucous was removed by swabbing with calcium alginate, then a lethal challenge dose (determined by titration) of HSV-2 strain 186 was delivered by positive-displacement pipettor. Inoculated mice were randomly grouped into one of 4 treatment groups (n=15/group). Animals in group 1 received no treatment and served as a control for the study. Animals in the second and third groups were treated topically with 100 μg of an ISS-containing phosphorothioate oligonucleotide (5′-[…]-3′) (SEQ ID NO:1) suspended in phosphate-buffered saline (PBS). The groups were treated 2 or 6 hours after inoculation. As a vehicle control, group four was treated with PBS alone.
In another experiment, inoculated mice were randomly grouped into 8 treatment groups (n=16/group). Animals in the groups received treatments as outlined in Table 11 below. The groups were treated 2 hours after virus inoculation.

HSV-1 = assay: Viral titer after pre-treating HSV-1 virus with oligonucleotide, Vero cells; type: cell-based, African Green monkey (Vero cells)
Experimental: HSV-1 or HSV-2 virus was pre-treated with varying concentrations of ISS or non-ISS oligonucleotides for 10 minutes prior to adding the mixture to plated Vero cells. Oligonucleotides were used at 1 μg/ml or 10 μg/ml. Viral titers were calculated as a percent of control titer generated by cells not treated with the oligonucleotides. The data are expressed as percent of control titer.

[1] = 150 μg IP Day −1, RSV Day 0, lungs Day 4
[2] = 150 μg IP Day −3, RSV Day 0, lungs Day 4
[3] = 150 μg SC Day −1, RSV Day 0, lungs Day 4
[4] = 150 μg SC Day −3, RSV Day 0, lungs Day 4
[5] = 100 μg topical 2 h post-inoculation (PI)
[6] = 100 μg topical 6 h post-inoculation (PI)

## 5′-TGACTGTGAACGTTCGAGATGA-3′ [SEQ ID NO: 1]
HSV-2; cells pre-treated 1 μg/ml, 30 sec
  Viral titer, percent of control titer: 101% of control titer
HSV-2; cells pre-treated 1 μg/ml, 10 min
  Viral titer, percent of control titer: 98% of control titer
HSV-2; cells pre-treated 1 μg/ml, 24 hr
  Viral titer, percent of control titer: 99% of control titer
HSV-2; cells pre-treated 10 μg/ml, 30 sec
  Viral titer, percent of control titer: 101% of control titer
HSV-2; cells pre-treated 10 μg/ml, 10 min
  Viral titer, percent of control titer: 101% of control titer
HSV-2; cells pre-treated 10 μg/ml, 24 hr
  Viral titer, percent of control titer: 99% of control titer
RSV A2; [1]
  RSV titer (log10/g lung) Mean: 3.6 log10/g lung
  RSV titer (log10/g lung) in cotton rat no. 1: 3.8 log10/g lung
  RSV titer (log10/g lung) in cotton rat no. 2: 3.3 log10/g lung
  RSV titer (log10/g lung) in cotton rat no. 3: 3.3 log10/g lung
  RSV titer (log10/g lung) in cotton rat no. 4: 3.8 log10/g lung
RSV A2; [2]
  RSV titer (log10/g lung) Mean: 3.7 log10/g lung
  RSV titer (log10/g lung) in cotton rat no. 1: 3.3 log10/g lung
  RSV titer (log10/g lung) in cotton rat no. 2: 3.8 log10/g lung
  RSV titer (log10/g lung) in cotton rat no. 3: 3.8 log10/g lung
  RSV titer (log10/g lung) in cotton rat no. 4: 3.8 log10/g lung
RSV A2; [3]
  RSV titer (log10/g lung) Mean: 4.0 log10/g lung
  RSV titer (log10/g lung) in CR no. 1: 4 log10/g lung
  RSV titer (log10/g lung) in CR no. 2: 4.5 log10/g lung
  RSV titer (log10/g lung) in CR no. 3: 3.5 log10/g lung
  RSV titer (log10/g lung) in CR no. 4: 4 log10/g lung
RSV A2; [4]
  RSV titer (log10/g lung) Mean: 4.1 log10/g lung
  RSV titer (log10/g lung) in CR no. 1: 4 log10/g lung
  RSV titer (log10/g lung) in CR no. 2: 4.5 log10/g lung
  RSV titer (log10/g lung) in CR no. 3: 4 log10/g lung
  RSV titer (log10/g lung) in CR no. 4: 4 log10/g lung
RSV A2; IP and SC administration of 150 μg
  Reduction in RSV viral titers compared to PBS: failed to cause a statistically significant reduction in viral titers
HSV-2 strain 186; 100 μg topical 2 or 6 hours after inoculation
  Overall effect on HSV2 disease (incidence, survival, time to symptoms and death): decreased incidence (i.e., individuals showing symptoms of HSV2 infection), improved survival and delays in both appearance of symptoms and time to death
HSV-2 strain 186; [5]
  Incidence (%): 60%
  Incidence (animals with symptoms/total): 9/15
  Survival (%): 40%
  Survival (survivors/total): 6/15
  Time to Death: 12 days
  Time to Symptoms: 6.6 days
HSV-2 strain 186; [6]
  Incidence (%): 80%
  Survival (%): 27%
  Survival (survivors/total): 4/15
  Time to Death: 10.6 days
  Time to Symptoms: 5.75 days
HSV-2 strain 186; animals that died, treated two hours after infection
  Change in average time to death: increased by an average of over two days
HSV-1; HSV virus incubated with ISS prior to infecting cells in vitro (HSV-1 and HSV-2, Table 13)
  Effect on viral titers from infected cells: no effect on the viral titers
HSV-1; HSV-1 virus pre-treated 10 minutes with 1 μg/ml
  Viral titer, percent of control titer: 101% of control titer
HSV-1; HSV-1 virus pre-treated 10 minutes with 10 μg/ml
  Viral titer, percent of control titer: 109% of control titer
